Test results taken from patent US9573975B2, “Melanoma antigen peptide and uses thereof” (INSERM (INSTITUT NATIONAL DE LA SANTE ET DE LA RECHERCHE …, priority 2012, dated 2017).

What was measured:
Assay type in all cases: cell-based, human
[1] = tested on: CD4 T cells in PBMC from healthy donors; test: PBMC from healthy donors stimulated with MELOE-1, restimulated with overlapping peptides, CD4/TNF-α staining; details: for healthy donors in whom CD4 responses against the region were detected: seven healthy donors, TNFα production
Protocol: FIG. 1: (A) Percentages of TNF-α producing CD4 T cells among positive microcultures. Fourteen days after PBMC stimulation with MELOE-1 whole polypeptide (2-46), microcultures were re-stimulated with each indicated peptide during 5 hours. TNF-α production was then assessed by a double labeling TNF-α-CD4. Results were analyzed with a non-parametric test (Kruskal-Wallis) followed by a Dunns post-test. (B) Frequency of microcultures containing CD4 T cells specific for MELOE-1 peptides (assessed by TNF-α intracellular staining after re-stimulation with the 4 indicated peptides). 624 microcultures (from 7 healthy donors) were analyzed by a contingency table followed by a Fisher exact test.
PBMC from healthy donors were stimulated with 10 μM of MELOE-1. After 14 days, the presence of CD4 T cells specific for the different regions of MELOE-1 was assessed by restimulating cells with MELOE-12-21, MELOE-111-30, MELOE-118-37 and MELOE-126-46 peptides, followed by CD4/TNF-α double staining and flow cytometry analysis. Between brackets is indicated the mean % of TNF-α producing CD4 T cells, in positive microcultures. NA: not available.
(§1) PBMC from healthy donors or melanoma patients (2·10^5 cells/well) were cultured for 14 days with 10 μM of MELOE-1 whole antigen (46 amino acids) in RPMI medium supplemented with 8% HS, 50 IU/ml of rIL-2 (Chiron, France) and L-Glutamin, in 96-well multiplates. Micro cultures were then restimulated individually with each overlapping peptide (MELOE-12-21, MELOE-111-30, MELOE-118-37, MELOE-126-46 or MELOE-122-46 for melanoma patients) in the presence of 10 μg/mL brefeldin A for 5 hours and the percentage of CD4^+ specific T cells was assessed by TNF-α, IFN-γ or IL-4 intracellular staining A negative control without peptide was included in all experiments.
(§2) Lymphocytes were stimulated for 5 hours in the presence of brefeldin A (10 μg/mL) either with peptide alone (10 μM) in an autopresentation assay or with B-EBV or HLA-class II expressing melanoma cells pulsed 2 hours with the cognate peptide, at a ratio 1:2. In some experiments, blocking mAb against HLA-DP (clone B7.21 from Dr Charron, UMR940, Paris), HLA-DQ (clone SPVL3, Beckman Coulter) or HLA-DR (clone L243, BD Biosciences) were added at a concentration of 12.5 μg/ml. Cells were then stained with APC-conjugated anti-CD4 mAb, fixed with 4% paraformaldehyde, labeled with PE-conjugated anti-cytokine mAb and analyzed by flow cytometry.
Our purpose was to look for the existence of class II helper epitopes all along MELOE-1 sequence (SEQ ID NO: 20), in order to document the immunogenicity of the different regions of this melanoma antigen. We stimulated 2·10^7 PBMC from seven healthy donors with MELOE-1 whole antigen and tested, after a 14-day culture period the presence of CD4 T cells specific for each region of the protein. Microcultures were screened for TNFα production by CD4+ T cells, after restimulation with four MELOE-1 derived overlapping peptides (Table I), in an autopresentation assay. […] On the contrary, the central region 18-37, containing an already described DR11-restricted epitope (24-37) located just at the end of this 20-mer peptide (Rogel et al., 2011), induced specific responses in microcultures deriving from only 2/7 donors (HD9 and HD17, both expressing the DR11 element). In these two donors, we detected 6 and 7% of positive microcultures, containing between 0.6 to 3.7% of TNFα producing CD4 T cells.

[2] = tested on: MELOE-111-30 specific CD4 T cell clone (5F9-DRβ1*0101); test: Peptide stimulation of CD4 T cell clone 5F9, intracellular cytokine staining; details: DRβ1*0101 restricted T cell clone (5F9)
Protocol: (§3) FIG. 5: Minimal peptides recognized by MELOE-1 specific CD4 T cell clones. MELOE-1 specific CD4 T cell clones were incubated with various concentrations of the indicated peptides during 5 hours in presence of Brefeldin A. TNF-α production was assessed by intracellular labeling with an anti-TNF-α specific antibody. The core peptide sequence is indicated in bold on each figure panel, and black circles illustrate the best fitting peptide.
as §2
(§4) We also documented the T helper profile of each T cell clone, by stimulating the CD4 T cell clones with the cognate peptide, and analyzing cytokine production. All the clones expressed Th1 cytokines (TNFα, IFNγ, IL2 and GM-CSF). On the contrary, these clones differ in their expression of Th2 cytokines. Indeed, the two DQ2 restricted T cell clones (9C12 and 4E2) and the DR1 restricted one (5F9) also strongly express two Th2 cytokines (IL4, and IL13), whereas the DR11-restricted T cell clone only weakly expressed IL4 (Table IV). None of the CD4 T cell expresses IL10 or IL5 at a significant level.
(§5) Three shorter peptides were better recognized by the DQ2-restricted 9C12 T cell clone, the shortest one being MELOE-17-19 (13-mer), recognized with an EC50 of 100 nM. The deletion of the two amino acids in C-term strongly reduces T cell clone recognition. […] Nonetheless all of these clones recognized a series of shortened peptides, thus we cannot formally assess that the shortest ones will be the exact peptides naturally presented on class II molecules.

[3] = tested on: CD4 T cells in PBMC from melanoma patients; test: PBMC from melanoma patients stimulated with MELOE-1, restimulated with peptides, CD4/IFN-γ and CD4/IL4 staining
Protocol: FIG. 2: (A) Percentages of cytokine producing CD4 T cells among positive microcultures. Fourteen days after PBMC stimulation with MELOE-1 whole polypeptide (2-46), microcultures were re-stimulated with each indicated peptide during 5 hours. IFN-γ (left panel) and IL4 (right panel) production was then assessed by a triple labeling IFN-γ-IL4-CD4. Results were analyzed with a non-parametric test (Kruskal-Wallis) followed by a Dunns post-test. (B) Frequency of microcultures containing CD4 T cells specific for MELOE-1 peptides (assessed by IFN-γ or IL4 intracellular staining after re-stimulation with the 3 indicated peptides). 576 microcultures (from 10 melanoma patients) were analyzed by a contingency table followed by a Fisher exact test.
PBMC from melanoma patients were stimulated with 10 μM of MELOE-1. After 14 days, the presence of CD4 T cells specific for the different regions of MELOE-1 was assessed by restimulating cells with MELOE-12-21, MELOE-111-30 and MELOE-122-46 peptides, followed by CD4/IFN-γ double staining for the detection of Th1 responses, and by CD4/IL4 double staining for Th2 responses. Between brackets is indicated the mean % of cytokine producing CD4 T cells, in positive microcultures.
as §1, §2
In order to confirm the immunogenicity of each MELOE-1 regions in melanoma patients, we stimulated melanoma patients PBMC with the MELOE-1 whole protein, and tested the reactivity of stimulated lymphocytes towards the three most immunogenic regions: 2-21, 11-30, and 22-46. For this study, instead of challenging microcultures with the 18-37 peptide, that appeared poorly immunogenic, we extended the C-terminus region from 26-46 to 22-46, in order to also detect responses to our previously described HLA-DR11-restricted epitope (24-37). […] We tested the induction of CD4 specific responses from MELOE-1 stimulated PBMC of 10 melanoma patients. We documented CD4 responses specific for the central region of MELOE-1 (11-30) for 7/9 patients, whereas responses specific for MELOE-12-21 and MELOE-122-46 were respectively detected in 4/9 and 5/9 patients (Table III). These responses were mainly Th1 responses (IFN-g production) while less frequent Th2 responses specific for the three regions of MELOE-1 were detected in 3/9 patients for MELOE-12-21, 2/9 patients for MELOE-111-30 and 5/9 patients for MELOE-122-46 (Table III). […] Concerning Th2 responses, much less frequent, the C-term region appeared to induce more frequently the growth of IL-4 producing CD4 T cells than the two other regions (FIG. 2A). […]

[4] = tested on: MELOE-126-46 specific CD4 T cell clone (4E2-DQβ1*0201); test: Peptide stimulation of CD4 T cell clone 4E2, intracellular cytokine staining
Protocol: as §3, §2, §4, §5

[5] = tested on: MELOE-1 specific T cell clones; test: HLA restriction of MELOE-1 specific T cell clones (anti-HLA blocking antibodies, HLA-matched B-EBV cell lines); details: T cell clone 4E2 (from HD25)
Protocol: FIG. 3: HLA-restricting element of MELOE-1 specific T cell clones and reactivity against HLA-matched melanoma cell lines. The HLA restriction of MELOE-1 specific T cell clones was first assessed using anti-HLA blocking antibodies (upper panel). T cell clones were stimulated for 5 hours in the presence of brefeldin A (10 μg/mL) either with peptide alone (10 μM) in an autopresentation assay and in presence or not of blocking antibodies at a concentration of 12.5 μg/mL. HLA restriction was confirmed with HLA-matched B-EBV cell lines pulsed 2 hrs with the cognate peptide, at a ratio 1:2 (middle panel). Reactivity of each T cell clone against HLA-class II expressing melanoma cells was assessed, in presence or not of exogeneous peptide (lower panel). After 5 hours of stimulation, cells were then stained with APC-conjugated anti-CD4 mAb, fixed with 4% paraformaldehyde, labeled with PE-conjugated anti-TNF-α mAb and analyzed by flow cytometry.
as §2
In order to formally characterize the recognized epitopes, we derived CD4 T cell clones specific for each region of MELOE-1 by limiting dilution, from microcultures of healthy donors or melanoma patients, containing at least 0.5% of specific CD4 T cells. We succeeded to derive CD4 specific T cell clones from HD17, HD22, HD25 and Pt≠3 microcultures, which were reactive against MELOE-12-21 (HD22), MELOE-111-30 (HD17 and Pt≠3) and MELOE-126-46 (HD25). From each cloning experiment, we obtained between one and ten reactive CD4 T cell clones, that turned out to be the same clonotype after CDR3B sequencing (Table IV). A single CD4 T cell clone for each specificity was used for further experiments. The HLA-restriction was determined for each T cell clone, first by using HLA-class II blocking monoclonal antibodies (FIG. 3, upper panel), and further by testing the recognition of HLA-matched B-EBV cell lines loaded with each recognized long peptide (FIG. 3 middle panel). The two T cell clones named 9C12 and 4E2, derived from HD22 and HD25 and specific for MELOE-12-21 and MELOE-126-46 were restricted by the HLA-DQβ1*0202 and the DQβ1*0201 molecules respectively. […]

[6] = clone 4E2, cognate peptide 10 μM, 5 hours

PSEGAACPPWHPSERISSTL [MELOE-118-37]
mean % of TNF-α producing CD4 T cells, in positive microcultures ([1]; donor HD17): (3% ± 0.7)
healthy donors in whom CD4 responses against the region were detected [1]: 2/7

TSREQFLPSEGAA [MELOE-111-23]
recognition by T cell clone (TNF-α production) [2]: optimal shorter peptides

SREQFLPSEGAAC [MELOE-112-24]
recognition by T cell clone (TNF-α production) [2]: optimal shorter peptides

AACPPWHPSERISSTLNDECWPASL [MELOE-122-46]
mean % of cytokine producing CD4 T cells, in positive microcultures (IFN-γ, Th1) ([3]; Pt ≠ 1): (4.8% ± 7.2)
mean % of cytokine producing CD4 T cells, in positive microcultures (IL4, Th2) ([3]; Pt ≠ 1): (0.8% ± 0.3)
mean % of cytokine producing CD4 T cells, in positive microcultures (IFN-γ, Th1) ([3]; Pt ≠ 2): (0.6% ± 0.02)
mean % of cytokine producing CD4 T cells, in positive microcultures (IFN-γ, Th1) ([3]; Pt ≠ 3): (1.9% ± 1.3)
mean % of cytokine producing CD4 T cells, in positive microcultures (IL4, Th2) ([3]; Pt ≠ 5): (0.8%)
mean % of cytokine producing CD4 T cells, in positive microcultures (IFN-γ, Th1) ([3]; Pt ≠ 7): (2.9% ± 3.5)
mean % of cytokine producing CD4 T cells, in positive microcultures (IL4, Th2) ([3]; Pt ≠ 7): (1.5% ± 0.7)
mean % of cytokine producing CD4 T cells, in positive microcultures (IFN-γ, Th1) ([3]; Pt ≠ 8): (0.5%)
mean % of cytokine producing CD4 T cells, in positive microcultures (IL4, Th2) ([3]; Pt ≠ 8): (0.6%)
mean % of cytokine producing CD4 T cells, in positive microcultures (IL4, Th2) ([3]; Pt ≠ 9): (0.7% ± 0.15)
Th1 responses, share of tested microcultures ([3]; of 576 tested microcultures, melanoma patients): 9.6%
melanoma patients with CD4 specific responses (mainly Th1, IFN-g production) ([3]; responding/tested patients): 5/9
melanoma patients with Th2 responses ([3]; responding/tested patients, IL4): 5/9

RISSTLNDECWPA [Peptide 32-44]
recognition by T cell clone (TNF-α production) ([4]; T cell clone 4E2, compared with 31-44): recognized to a lower extent

PWHPSERISSTLNDECWPASL [MELOE-126-46]
Cytokine profile: GM-CSF [4, 6]: GM-CSF ^high
Cytokine profile: IFN [4, 6]: IFN ^high
Cytokine profile: IL2 [4, 6]: IL2 ^high
Cytokine profile: IL4 [4, 6]: IL4 ^high
Cytokine profile: IL5 [4, 6]: IL5 ^low
Cytokine profile: IL10 [4, 6]: IL10 ^neg
Cytokine profile: IL13 [4, 6]: IL13 ^high
Cytokine profile: TNF ([4]; clone 4E2, cognate peptide 10 μM, 5 hours, autopresentation): TNF ^high
HLA-restricting element of the peptide-specific T cell clone [5]: DQβ1*0201
mean % of TNF-α producing CD4 T cells, in positive microcultures ([1]; donor HD22): (1% ± 0.1)
healthy donors in whom CD4 responses against the region were detected [1]: 4 out of 7
